We go through six compounds from PubChem BioAssay AID651642 (Sanford-Burnham Center for Chemical Genomics, 2012).

Structures are written as SMILES.

The test system of one experiment is HL-1. The experiment is described as follows: protection of cardiomyocytes from stress damage, SAR follow-up, cell-based, panel, H9c2 and HL-1, H2O2, 2-deoxyglucose, ATP luminescence (AID 651642).
In another experiment the test system is H9c2. The description is as above.
Where [1] appears, read: H9c2/HL-1 cardiomyocyte 2-deoxyglucose damage, mean of runs, with 2-deoxyglucose, mean IC50 across panel.
Where [2] appears, read: H9c2/HL-1 cardiomyocyte 2-deoxyglucose damage, run 1, with 2-deoxyglucose.
[3] abbreviates: H9c2/HL-1 cardiomyocyte 2-deoxyglucose damage, run 2, with 2-deoxyglucose.
Setting [4] is: H9c2/HL-1 cardiomyocyte 2-deoxyglucose damage, run 3, with 2-deoxyglucose.
Where [5] appears, read: H9c2/HL-1 cardiomyocyte 2-deoxyglucose damage, run 4, with 2-deoxyglucose.
Setting [6] is: H9c2/HL-1 cardiomyocyte H2O2 oxidative damage, mean of runs, with H2O2, mean IC50 across panel.
The mark [7] stands for this setting: H9c2/HL-1 cardiomyocyte H2O2 oxidative damage, run 1, with H2O2.
Setting [8] is: H9c2/HL-1 cardiomyocyte H2O2 oxidative damage, run 2, with H2O2.
The mark [9] stands for this setting: H9c2/HL-1 cardiomyocyte H2O2 oxidative damage, run 3, with H2O2.
[10] abbreviates: H9c2/HL-1 cardiomyocyte H2O2 oxidative damage, run 4, with H2O2.

In the case of `COc1ccc(NC(=O)CNC(=O)c2cc(-c3cc(OC)c(OC)c(OC)c3)nc3ccccc23)cc1`, the IC50 with HL-1 (setting [1]) is 6.65 µM; in the experiment with HL-1 (setting [2]), 4.04 µM; in the experiment on HL-1 (setting [3]) it was 4.29 µM; in the experiment on HL-1 (setting [4]), 8.55 µM; in the experiment on HL-1 (setting [5]), 9.7 µM; in the experiment with HL-1 (setting [6]) it was 7.15 µM. In addition, the IC50 in the experiment on HL-1 (setting [7]) was 5.04 µM; in the experiment with HL-1 (setting [8]) it was 8.88 µM; with HL-1 (setting [9]), 7 µM; with HL-1 (setting [10]), 7.7 µM; in the experiment on H9c2 (setting [1]), 12.8 µM; in the experiment with H9c2 (setting [2]), 13.8 µM. Also, the IC50 in the experiment with H9c2 (setting [3]) is 15.2 µM; in the experiment on H9c2 (setting [4]), 10.4 µM; with H9c2 (setting [5]) it was 12 µM; in the experiment with H9c2 (setting [7]) it was 3.97 µM; with H9c2 (setting [8]), 4.53 µM; in the experiment with H9c2 (setting [9]) it was more than 79 µM. In the experiment with H9c2 (setting [10]), the IC50 is more than 79 µM.
Consider `COc1ccccc1CN1C(=O)c2ccccc2N2C(=O)c3c(ccc(OC)c3OC)C12` (configuration not stated), for which the IC50 in the experiment on HL-1 (setting [1]) is 5.37 µM; in the experiment on HL-1 (setting [2]), 2.86 µM; with HL-1 (setting [3]), 3.96 µM; with HL-1 (setting [4]), 6.95 µM; in the experiment with HL-1 (setting [5]), 7.71 µM; with HL-1 (setting [7]) it was more than 79 µM. Besides, the half-maximal inhibitory concentration (IC50) with HL-1 (setting [8]) was more than 79 µM; with HL-1 (setting [9]), 4.54 µM; in the experiment on HL-1 (setting [10]), 12 µM; with H9c2 (setting [2]), more than 79 µM; with H9c2 (setting [3]) it was more than 79 µM; in the experiment on H9c2 (setting [4]) it was 43.5 µM. In addition, the IC50 in the experiment on H9c2 (setting [5]) was 46.2 µM; in the experiment with H9c2 (setting [7]), more than 79 µM; in the experiment with H9c2 (setting [8]), 0.303 µM; in the experiment on H9c2 (setting [9]) it was more than 79 µM; in the experiment with H9c2 (setting [10]), more than 79 µM.
For `COc1ccc2c(c1OC)C(=O)N1c3ccccc3C(=O)N(Cc3cccc(Br)c3)C21` (configuration not stated), the IC50 is 7.49 µM in the experiment on HL-1 (setting [1]); 5.07 µM in the experiment on HL-1 (setting [2]); 5.69 µM in the experiment on HL-1 (setting [3]); 7.9 µM in the experiment on HL-1 (setting [4]); 11.3 µM in the experiment on HL-1 (setting [5]); more than 79 µM in the experiment with HL-1 (setting [6]). Besides, the IC50 with HL-1 (setting [7]), with HL-1 (setting [8]), with HL-1 (setting [9]), with HL-1 (setting [10]), in the experiment with H9c2 (setting [1]) and in the experiment with H9c2 (setting [2]) was more than 79 µM each time. Moreover, the IC50 with H9c2 (setting [3]) was more than 79 µM; with H9c2 (setting [4]) it was more than 79 µM; in the experiment on H9c2 (setting [5]), more than 79 µM; in the experiment on H9c2 (setting [7]), 2.22 µM; in the experiment with H9c2 (setting [8]) it was 3.79 µM; with H9c2 (setting [9]), more than 79 µM. In the experiment with H9c2 (setting [10]), this compound displayed an IC50 of more than 79 µM.
Consider `COC(=O)CNC(=O)c1cc(-c2cc(OC)c(OC)c(OC)c2)nc2ccccc12`, for which the IC50 in the experiment on HL-1 (setting [1]), in the experiment on HL-1 (setting [2]), in the experiment on HL-1 (setting [3]), in the experiment on HL-1 (setting [4]), in the experiment on HL-1 (setting [5]) and in the experiment on HL-1 (setting [7]) was more than 79 µM in each case. Moreover, the IC50 in the experiment with HL-1 (setting [8]) was 41.2 µM; in the experiment with HL-1 (setting [9]), more than 79 µM; in the experiment with HL-1 (setting [10]), more than 79 µM; in the experiment with H9c2 (setting [1]) it was more than 79 µM; in the experiment on H9c2 (setting [2]), more than 79 µM; in the experiment on H9c2 (setting [3]), more than 79 µM. For the same compound, the 50% inhibitory concentration (IC50) is more than 79 µM in the experiment on H9c2 (setting [4]); more than 79 µM in the experiment on H9c2 (setting [5]); more than 79 µM in the experiment on H9c2 (setting [7]); 39.1 µM with H9c2 (setting [8]); more than 79 µM in the experiment on H9c2 (setting [9]); more than 79 µM in the experiment with H9c2 (setting [10]).
Take `COc1cc(-c2cc(C(=O)NCC(=O)Nc3cccc(C(C)=O)c3)c3cc(F)ccc3n2)cc(OC)c1OC`: the IC50 amounted to 6.37 µM with HL-1 (setting [1]); 3.22 µM in the experiment with HL-1 (setting [2]); 3.87 µM in the experiment on HL-1 (setting [3]); 8.99 µM in the experiment with HL-1 (setting [4]); 9.39 µM in the experiment with HL-1 (setting [5]); 6.46 µM in the experiment with HL-1 (setting [6]). Moreover, the IC50 with HL-1 (setting [7]) was 5.91 µM; with HL-1 (setting [8]), 5.98 µM; in the experiment on HL-1 (setting [9]), 5.45 µM; in the experiment with HL-1 (setting [10]), 8.51 µM; in the experiment with H9c2 (setting [1]) it was 6.15 µM; in the experiment with H9c2 (setting [2]) it was 7.04 µM. Further, the IC50 in the experiment with H9c2 (setting [3]) worked out at 8.51 µM; in the experiment on H9c2 (setting [4]), 4.17 µM; in the experiment with H9c2 (setting [5]), 4.87 µM; with H9c2 (setting [6]), 1.29 µM; in the experiment with H9c2 (setting [7]), 1.53 µM; with H9c2 (setting [8]), 1.98 µM. For the same compound, the results for the IC50 with H9c2 (setting [9]) and with H9c2 (setting [10]) were 0.789 µM and 0.865 µM, respectively.
In the case of `COc1ccc2c(c1OC)C(=O)N1c3ccccc3C(=O)N(Cc3ccccc3C)C21` (configuration not stated), the IC50 in the experiment on HL-1 (setting [1]) was 3.01 µM; with HL-1 (setting [2]), 1.65 µM; with HL-1 (setting [3]), 1.91 µM; in the experiment with HL-1 (setting [4]), 3.79 µM; with HL-1 (setting [5]), 4.71 µM; in the experiment with HL-1 (setting [6]) it was more than 79 µM. Also, the IC50 is more than 79 µM with HL-1 (setting [7]); more than 79 µM in the experiment with HL-1 (setting [8]); more than 79 µM in the experiment with HL-1 (setting [9]); more than 79 µM in the experiment with HL-1 (setting [10]); 16.3 µM in the experiment with H9c2 (setting [1]); 17 µM in the experiment on H9c2 (setting [2]). For the same compound, the IC50 was 18.1 µM in the experiment with H9c2 (setting [3]); 13.8 µM with H9c2 (setting [4]); 16.2 µM in the experiment with H9c2 (setting [5]); 1.32 µM with H9c2 (setting [7]); 2.6 µM in the experiment with H9c2 (setting [8]); more than 79 µM in the experiment on H9c2 (setting [9]). The compound further registered a half-inhibitory concentration (IC50) in the experiment on H9c2 (setting [10]) of more than 79 µM.
